# Test results reported in patent US12173039B1, “TPL2 inhibiting agents, uses thereof, and detection of TPL2” (Washington University, priority 2021, dated 2024).
# What was measured:
# [1] = tested on: p-FAK, p-ERK, total FAK, and FoxM1; assay: Reverse-phase protein array (RPPA) on HPNE-KRAS^G12D cells overexpressing IRAK4; format: cell-based, human
# Procedure: All lysates were prepared according to sample preparation guidelines provided by MD Anderson Cancer Center (MDACC). HPNE-KRAS^G12D were infected with retroviral particles containing AU1-tagged IRAK4 WT or vector control in presence of 8 μg mL-1 polybrene, selected with blasticidin (10 μg mL-1) and RPPA was performed. For drug treatment, IRAK4 overexpressing cells were treated with AS2444697 2 μM or vehicle (DMSO) for 24 hours. For evaluation of TPL2 WT and E188K, 293T cells were transfected in duplicates with Vector (pbabe-puro), TPL2 WT or TPL2 E188K along with equal amount of polyethylenimine. Cells were harvested 48 hrs post-transfection and lysates were prepared and sent for RPPA. For both RPPA experiments, lysates were quantified by Bradford assay (Thermo Scientific), equalized for concentration, and denatured and reduced by adding 4×SDS sample buffer (without bromophenol blue) and boiling for 5 minutes.
# p-MEK, p-ERK, and p-RSK = assay: Immunoblots of MAPK pathway markers in human cell lines; format: cell-based
# Procedure: Standard immunoblotting procedure was followed. Cells were washed twice with ice-cold 1×PBS and lysed with ice-cold triton-X lysis buffer (25 mM Tris, pH 7.4, 150 mM NaCl, 5 mM EDTA, 1% Triton-X) containing 1× protease (10 μg mL-1 leupeptin, 700 ng mL-1 pepstatin, 170 ng mL-1 aprotinin, 1 mM PMSF) and phosphatase (10 mM NaF, 1 mM Na3VO4, 1 mM Na4P2O^7, 5 mM Na b-glycerophosphate) inhibitors. Lysates were quantified by Bradford assay (Thermo Scientific), normalized for concentration, and reduced and denatured with 6×SDS sample buffer followed by boiling for 5 minutes. 20-40 μg of protein per sample was resolved by SDS-PAGE, blotted on PVDF membrane and probed with primary antibodies (Cell Signaling Technologies: p-ERK1/2 (#4370), p-MEK1/2 (#9154), ERK1/2 (#4695), MEK1/2 (#8727), p-p105 (#4806), NFS2KB1 p105/p50 (#3035), p-IRAK4 (#11927), IRAK4 (#4363), ubiquitin (#43124), anti-HA (#3724), p-p90RSK (#11989), RSK1/2/3 (#9355), p-TPL2 (#4491), PARP (#9532), p-B-RAF S445 (#2696), BRAF (#9433S). Santa Cruz Biotechnology: GAPDH (#sc-32233), p-p65 S536 (#sc101752). Thermo Fisher Scientific: p-55 TPL2 (#PA5-36635). EMD Millipore: IRAK4 (#07-418). R&D systems: TPL2/MAP3K8 (#MAB4586). Novus Biologicals: anti-AU1 (#NB600-453). Abcam: p-p65 S276 (#ab194726)). Membranes were incubated with appropriate HRP-conjugated secondary antibodies (anti-mouse or anti-rabbit, (1:5000 dilution), Jackson Laboratory) and imaged using chemiluminescent substrate. Additional steps for immunoprecipitation include incubation of soluble fraction lysate with anti-HA magnetic beads (Thermo Scientific cat #88837) overnight at 4° C., washing, and elution using 1×SDS sample buffer and boiling as mentioned in manufacturer's protocol.
# [2] = tested on: HPNE-KRAS^G12D cells, HEKT/tH-KRAS^G12V cells, conventional PDAC lines, and PDCLs; assay: Anchorage independent soft agar growth assay, human KRAS-mutant lines; format: cell-based
# Procedure: (§1) Cells were seeded at 5000-15000 cells in 0.3% noble agar-DMEM suspension per well, in triplicate, in 24 well plate. For drug treatment, compound was added to cell suspension at 1× concentration. Seeded cells were fed with fresh 0.6% agar-DMEM mix once every 7-12 days. […] After 3-6 weeks, colonies were counted under microscope and imaged. Colony count was normalized to control and graphed in GraphPad Prism v7/8.
# KP2 cells = assay: Anchorage independent soft agar growth assay, KP2 cells; format: cell-based, murine
# Procedure: as §1
smiles,measurement,setting,value
"CC[C@@H]1[C@H](F)C(=O)N[C@@H]1COc1nccc2cc(C(N)=O)c(OC)cc12 [PF06650833, 1-(((2S,3S,4S)-3-ethyl-4-fluoro-5-oxopyrrolidin-2-yl)methoxy)-7-methoxyisoquinoline-6-carboxamide]",MAPK target proteins (RPPA),[1],suppressed
same,"IRAK4-induced increase in p-FAK, p-ERK, total FAK, and FoxM1 (RPPA)",[1]; 24 hours,reversed
same,p-MEK and p-ERK,"p-MEK, p-ERK, and p-RSK; 293T cells transfected with oncogenic BRAF^V600E, 24 hours",neither TPL2i nor IRAK4i suppressed
same,p-MEK and p-ERK / MAPK activity,"p-MEK, p-ERK, and p-RSK; BxPc-3 PDAC line (BRAF mutation, WT KRAS)",neither TPL2i nor IRAK4i suppressed
same,"KRAS mutant-upregulated p-MEK, p-ERK, and p-RSK levels","p-MEK, p-ERK, and p-RSK; HPNE-KRAS^G12D and 293T-KRAS^G12V, 24 hours, serum-free",dose-dependently blocked
same,p-MEK and p-ERK levels enhanced by ectopic TPL2,"p-MEK, p-ERK, and p-RSK; Pa01C and HPAC cells overexpressing TPL2, serum-free",blocked
same,MAPK activity (immunoblot),"p-MEK, p-ERK, and p-RSK; Pa01C, Pa02C, Pa03C and HPAC, 16 hours",dose-dependently suppressed
same,AI growth,[2]; HPNE-KRAS^G12D cells,crippled the AI growth
same,AI growth enhanced by IRAK4 overexpression,[2]; HPNE-KRAS^G12D cells ectopically expressing IRAK4,reversed the effect of IRAK4 overexpression
same,AI growth in soft agar,KP2 cells,dose-dependently suppressed
